According to patent US20220356186A1, “PERK INHIBITING PYRROLOPYRIMIDINE COMPOUNDS” (HiberCell, Inc., priority 2019, published 2022):
Read-outs that look alike come from different tables or passages of the source. Blank lines part the entries; values can stand above or below the molecule they belong to.

Experiments:
[1] = molecular target: T1, EIF2AK3 (PERK) catalytic domain (amino acids 536-1116) (Homo sapiens, UniProt Q9NZJ5); test: PERK in vitro activity assay (isolated), TR-FRET kinase assay; assay type: biochemical
T1 construct: EIF2AK3 (PERK) catalytic domain (amino acids 536-1116)
T1 sequence (Q9NZJ5 536-1116): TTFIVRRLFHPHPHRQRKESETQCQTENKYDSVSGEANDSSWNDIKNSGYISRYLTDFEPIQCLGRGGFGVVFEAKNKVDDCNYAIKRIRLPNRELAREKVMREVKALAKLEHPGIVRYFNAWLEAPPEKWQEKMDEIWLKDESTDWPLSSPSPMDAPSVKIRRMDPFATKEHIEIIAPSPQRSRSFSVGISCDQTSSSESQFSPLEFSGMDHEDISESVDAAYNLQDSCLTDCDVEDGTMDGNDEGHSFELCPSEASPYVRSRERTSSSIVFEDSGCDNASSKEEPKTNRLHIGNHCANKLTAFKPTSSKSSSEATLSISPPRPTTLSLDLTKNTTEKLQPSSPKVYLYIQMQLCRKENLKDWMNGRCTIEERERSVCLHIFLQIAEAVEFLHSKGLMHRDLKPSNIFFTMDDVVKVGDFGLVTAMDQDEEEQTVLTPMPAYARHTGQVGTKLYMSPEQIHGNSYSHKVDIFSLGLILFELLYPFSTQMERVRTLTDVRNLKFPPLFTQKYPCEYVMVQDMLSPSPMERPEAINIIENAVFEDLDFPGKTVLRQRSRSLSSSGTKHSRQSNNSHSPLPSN
Outline: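 TR-FRET read-out: after EDTA stop (10 mM final), Tb-labelled phospho-eIF2a antibody (2 nM) for 90 min; IC50 via 4-parameter nonlinear fit. Reaction: PERK aa 536-1116, GFP-eIF2a 100-200 nM, HEPES pH 7.5 with MgCl2/EGTA/Brij-35, 45 min, room temperature, started by enzyme.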

[2] = test system: GFP-eIF2α in HEK293 cells; test: PERK cellular assay, TR-FRET in HEK293-EGFP-eIF2a cells after tunicamycin-induced ER stress; assay type: cell-based
Outline: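 Compounds were added 30 min before a 2 h tunicamycin ([…]) challenge of lentivirally made GFP-eIF2α HEK293 cells, 5000/well; lysate TR-FRET ratio was the read-out.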

Aqueous solubility = assay type: physicochemical
select kinases = test: KINOMEscan in vitro competition binding assay for select kinases
[3] = biochemical potency, Table 2, read-out: PERK IC50
[4] = isolated PERK enzyme, 1.5 μM ATP, read-out: Biochemical IC50
[5] = HEK293-EGFP-eIF2a cells, tunicamycin 2 hours, read-out: Cellular eIF2α IC50
[6] = Homo sapiens, HEK293, cellular potency, Table 2, read-out: P-EIF2α IC50

IC50 [1, 3]: 2 nM
IC50 [1, 4]: 1 to 25 nM
Aq Sol (Aqueous solubility): 57 µM
Compound: Cc1cc(NC(=O)C(O)c2ccccc2)ccc1-c1cn(C)c2ncnc(N)c12 (centres unmarked) [Example 6, N-(4-(4-amino-7-methyl-7H-pyrrolo[2,3-d]pyrimidin-5-yl)-3-methylphenyl)-2-hydroxy-2-phenylacetamide]
IC50 [2, 5]: 1 to 25 nM
IC50 [2, 6]: 23 nM

IC50 [1, 3]: 6 nM
Aq Sol (Aqueous solubility): 14 µM
Compound: Cc1cc(NC(=O)Cc2ccccc2)ccc1-c1cn(C)c2ncnc(N)c12 [Compound A, reference compound]
IC50 [2, 6]: 41 nM

IC50 [1, 4]: 1 to 25 nM
Kinase selectivity (select kinases; versus Example 9 and GSK2656157, KINOMEscan, Treespot analysis): more selective
Compound: Cc1nc(N)c2c(-c3ccc(NC(=O)C(O)c4cccc(F)c4)cc3C)cn(C)c2n1 (single isomer, unassigned) [Example 1, N-(4-(4-amino-2,7-dimethyl-7H-pyrrolo[2,3-d]pyrimidin-5-yl)-3-methylphenyl)-2-(3-fluorophenyl)-2-hydroxyacetamide]
IC50 [2, 5]: 26 to 50 nM
KINOMEscan competition binding, inhibition of AURKB (select kinases; kinase AURKB): No Inhibition (“No Inhibition” refers to less than 50% inhibition)
KINOMEscan competition binding, inhibition of AXL (select kinases; kinase AXL): No Inhibition (“No Inhibition” refers to less than 50% inhibition)
KINOMEscan competition binding, inhibition of BLK (select kinases; kinase BLK): No Inhibition (“No Inhibition” refers to less than 50% inhibition)
KINOMEscan competition binding, inhibition of CAMK4 (select kinases; kinase CAMK4): No Inhibition (“No Inhibition” refers to less than 50% inhibition)
KINOMEscan competition binding, inhibition of CDK8 (select kinases; kinase CDK8): No Inhibition (“No Inhibition” refers to less than 50% inhibition)
KINOMEscan competition binding, inhibition of CDK11 (select kinases; kinase CDK11): No Inhibition (“No Inhibition” refers to less than 50% inhibition)
KINOMEscan competition binding, inhibition of CSF1R (select kinases; kinase CSF1R): No Inhibition (“No Inhibition” refers to less than 50% inhibition)
KINOMEscan competition binding, inhibition of EIF2AK1 (select kinases; kinase EIF2AK1): No Inhibition (“No Inhibition” refers to less than 50% inhibition)
KINOMEscan competition binding, inhibition of EPHB6 (select kinases; kinase EPHB6): No Inhibition (“No Inhibition” refers to less than 50% inhibition)
KINOMEscan competition binding, inhibition of FLT3 (select kinases; kinase FLT3): No Inhibition (“No Inhibition” refers to less than 50% inhibition)
KINOMEscan competition binding, inhibition of HIPK4 (select kinases; kinase HIPK4): No Inhibition (“No Inhibition” refers to less than 50% inhibition)
KINOMEscan competition binding, inhibition of LOK (select kinases; kinase LOK): No Inhibition (“No Inhibition” refers to less than 50% inhibition)
KINOMEscan competition binding, inhibition of MAP3K2 (select kinases; kinase MAP3K2): No Inhibition (“No Inhibition” refers to less than 50% inhibition)
KINOMEscan competition binding, inhibition of MAP3K3 (select kinases; kinase MAP3K3): No Inhibition (“No Inhibition” refers to less than 50% inhibition)
KINOMEscan competition binding, inhibition of MAP3K15 (select kinases; kinase MAP3K15): No Inhibition (“No Inhibition” refers to less than 50% inhibition)
KINOMEscan competition binding, inhibition of MEK5 (select kinases; kinase MEK5): No Inhibition (“No Inhibition” refers to less than 50% inhibition)
KINOMEscan competition binding, inhibition of MKNK2 (select kinases; kinase MKNK2): No Inhibition (“No Inhibition” refers to less than 50% inhibition)
KINOMEscan competition binding, inhibition of NEK1 (select kinases; kinase NEK1): No Inhibition (“No Inhibition” refers to less than 50% inhibition)
KINOMEscan competition binding, inhibition of NEK5 (select kinases; kinase NEK5): No Inhibition (“No Inhibition” refers to less than 50% inhibition)
KINOMEscan competition binding, inhibition of PIK3C2B (select kinases; kinase PIK3C2B): No Inhibition (“No Inhibition” refers to less than 50% inhibition)
KINOMEscan competition binding, inhibition of RIOK2 (select kinases; kinase RIOK2): No Inhibition (“No Inhibition” refers to less than 50% inhibition)
KINOMEscan competition binding, inhibition of RIPK1 (select kinases; kinase RIPK1): No Inhibition (“No Inhibition” refers to less than 50% inhibition)
KINOMEscan competition binding, inhibition of RIPK2 (select kinases; kinase RIPK2): No Inhibition (“No Inhibition” refers to less than 50% inhibition)
KINOMEscan competition binding, inhibition of RIPK5 (select kinases; kinase RIPK5): No Inhibition (“No Inhibition” refers to less than 50% inhibition)
KINOMEscan competition binding, inhibition of TESK1 (select kinases; kinase TESK1): No Inhibition (“No Inhibition” refers to less than 50% inhibition)
KINOMEscan competition binding, inhibition of TIE2 (select kinases; kinase TIE2): No Inhibition (“No Inhibition” refers to less than 50% inhibition)
KINOMEscan competition binding, inhibition of TRKA (select kinases; kinase TRKA): No Inhibition (“No Inhibition” refers to less than 50% inhibition)
KINOMEscan competition binding, inhibition of TRKB (select kinases; kinase TRKB): No Inhibition (“No Inhibition” refers to less than 50% inhibition)
KINOMEscan competition binding, inhibition of TRKC (select kinases; kinase TRKC): No Inhibition (“No Inhibition” refers to less than 50% inhibition)
KINOMEscan competition binding, inhibition of VRK2 (select kinases; kinase VRK2): No Inhibition (“No Inhibition” refers to less than 50% inhibition)
KINOMEscan competition binding, inhibition of YANK1 (select kinases; kinase YANK1): No Inhibition (“No Inhibition” refers to less than 50% inhibition)
KINOMEscan competition binding, inhibition of YANK2 (select kinases; kinase YANK2): No Inhibition (“No Inhibition” refers to less than 50% inhibition)
KINOMEscan competition binding, inhibition of YSK4 (select kinases; kinase YSK4): No Inhibition (“No Inhibition” refers to less than 50% inhibition)
